Assay results as given in patent US20130281449A1, “Oxazine Derivatives and their Use in the Treatment of Neurological Disorders” (NOVARTIS AG, priority 2011, published 2013).
Counter-ions that a name gives are not always drawn.

Legend:
[1] = tested on: Cellular Release of Amyloid Peptide 1-40; assay: Test 4: Inhibition of Cellular Release of Amyloid Peptide 1-40; assay type: cell-based, Chinese hamster; conditions: Cricetulus griseus, 24 h; read-out: Amyloid-β1-40 release IC50
Experimental: Chinese hamster ovary cells are transfected with the human gene for amyloid precursor protein. The cells are plated at a density of 8000 cells/well into 96-well microtiter plates and cultivated for 24 hours in DMEM cell culture medium containing 10% FCS. The test compound is added to the cells at various concentrations, and the cells are cultivated for 24 hours in the presence of the test compound. […] The potency of the compound is calculated from the percentage of inhibition of amyloid peptide release as a function of the test compound concentration.

[2] = molecular target: Human BACE-1 (Homo sapiens, UniProt P56817); assay: Test 1: Inhibition of Human BACE-1; assay type: biochemical; conditions: mean IC50 values in Test 1; recombinant BACE-1, pH 4.5
Experimental: Test 1: Inhibition of Human BACE-1
IC50 values are calculated from percentage of inhibition of BACE-1 activity as a function of the test compound concentration.

Human BACE-1, sequence (P56817 46-457 limits assumed): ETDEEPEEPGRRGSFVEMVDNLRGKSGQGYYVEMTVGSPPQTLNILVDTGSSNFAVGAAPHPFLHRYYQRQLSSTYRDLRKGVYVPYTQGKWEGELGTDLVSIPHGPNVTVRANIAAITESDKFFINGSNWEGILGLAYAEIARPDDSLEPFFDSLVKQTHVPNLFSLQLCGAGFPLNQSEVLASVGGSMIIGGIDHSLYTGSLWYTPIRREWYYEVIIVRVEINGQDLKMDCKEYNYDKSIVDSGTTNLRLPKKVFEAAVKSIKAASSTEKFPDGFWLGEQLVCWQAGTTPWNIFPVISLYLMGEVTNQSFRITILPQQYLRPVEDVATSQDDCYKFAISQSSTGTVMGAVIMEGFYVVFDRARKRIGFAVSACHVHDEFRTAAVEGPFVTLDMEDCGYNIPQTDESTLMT

Row | IC50 [1] [nM] | IC50 [2] [nM] | SMILES
1 | 4 | – | Cc1cc(C#N)cnc1C(=O)Nc1ccc(F)c(C2(C)COC(CF)(CF)C(N)=N2)c1 (racemic) [Example 37, 5-Cyano-3-methyl-pyridine-2-carboxylic acid [3-(5-amino-6,6-bis-fluoromethyl-3-methyl-3,6-dihydro-2H-[1,4]oxazin-3-yl)-4-fluoro-phenyl]-amide]
2 | 6 | 18 | COCc1cc(Cl)cnc1C(=O)Nc1ccc(F)c([C@]2(C(F)F)COCC(N)=N2)c1 [Example 1, 5-Chloro-3-methoxymethyl-pyridine-2-carboxylic acid [3-((R)-5-amino-3-difluoromethyl-3,6-dihydro-2H-[1,4]oxazin-3-yl)-4-fluoro-phenyl]-amide]
3 | 11 | 32 | N#Cc1cnc(C(=O)Nc2ccc(F)c([C@]3(C(F)F)COCC(N)=N3)c2)c(Cl)c1 [Example 2, 3-Chloro-5-cyano-pyridine-2-carboxylic acid [3-((R)-5-amino-3-difluoromethyl-3,6-dihydro-2H-[1,4]oxazin-3-yl)-4-fluoro-phenyl]-amide]
4 | 9 | 25 | [2H]C([2H])([2H])Oc1cnc(C(=O)Nc2ccc(F)c([C@]3(C(F)F)COCC(N)=N3)c2)c(N)n1 [Example 3, 3-Amino-5-tris-deutero-methoxy-pyrazine-2-carboxylic acid [3-((R)-5-amino-3-difluoromethyl-3,6-dihydro-2H-[1,4]oxazin-3-yl)-4-fluoro-phenyl]-amide]
5 | 1 | 2 | C#CCOc1cnc(C(=O)Nc2ccc(F)c([C@]3(C(F)F)COCC(N)=N3)c2)c(N)n1 [Example 4, 3-Amino-5-prop-2-ynyloxy-pyrazine-2-carboxylic acid [3-((R)-5-amino-3-difluoromethyl-3,6-dihydro-2H-[1,4]oxazin-3-yl)-4-fluoro-phenyl]-amide]
6 | 14 | 12 | NC1=N[C@@](c2cc(NC(=O)c3ccc4c(Cl)c[nH]c4n3)ccc2F)(C(F)F)COC1 [Example 5, 3-Chloro-1H-pyrrolo[2,3-b]pyridine-6-carboxylic acid [3-((R)-5-amino-3-difIuoromethyl-3,6-dihydro-2H-[1,4]oxazin-3-yl)-4-fluoro-phenyl]-amide]
7 | 8 | 25 | NC1=N[C@@](c2cc(NC(=O)c3ncc(C(F)F)nc3N)ccc2F)(C(F)F)COC1 [Example 6, 3-Amino-5-difluoromethyl-pyrazine-2-carboxylic acid [3-((R)-5-amino-3-difluoromethyl-3,6-dihydro-2H-[1,4]oxazin-3-yl)-4-fluoro-phenyl]-amide]
8 | 11 | 130 | COc1cnc(C(=O)Nc2ccc(F)c([C@]3(C(F)F)COCC(N)=N3)c2)c(C)c1 [Example 7, 5-Methoxy-3-methyl-pyridine-2-carboxylic acid [3-((R)-5-amino-3-difluoromethyl-3,6-dihydro-2H-[1,4]oxazin-3-yl)-4-fluoro-phenyl]-amide hydrochloride]
9 | 8 | 54 | Cc1cc(C(F)F)cnc1C(=O)Nc1ccc(F)c([C@]2(C(F)F)COCC(N)=N2)c1 [Example 8, 5-Difluoromethyl-3-methyl-pyridine-2-carboxylic acid [3-((R)-5-amino-3-difluoromethyl-3,6-dihydro-2H-[1,4]oxazin-3-yl)-4-fluoro-phenyl]-amide hydrochloride]
10 | 36 | 110 | [2H]C([2H])([2H])OCc1cc(F)cnc1C(=O)Nc1ccc(F)c([C@]2(C(F)F)COCC(N)=N2)c1 [Example 9, 5-Fluoro-3-trideuteromethoxymethyl-pyridine-2-carboxylic acid [3-((R)-5-amino-3-difluoromethyl-3,6-dihydro-2H-[1,4]oxazin-3-yl)-4-fluoro-phenyl]-amide]
11 | 32 | 190 | [2H]C([2H])([2H])OCc1cc(OC([2H])([2H])[2H])cnc1C(=O)Nc1ccc(F)c([C@]2(C(F)F)COCC(N)=N2)c1 [Example 10, 5-Trideuteromethoxy-3-trideuteromethoxymethyl-pyridine-2-carboxylic acid [3-((R)-5-amino-3-difluoromethyl-3,6-dihydro-2H-[1,4]oxazin-3-yl)-4-fluoro-phenyl]-amide]
12 | 5 | 18 | N#Cc1cnc(C(=O)Nc2ccc(F)c([C@]3(C(F)F)COCC(N)=N3)c2)c(N)c1 [Example 11, 3-Amino-5-cyano-pyridine-2-carboxylic acid [3-((R)-5-amino-3-difluoromethyl-3,6-dihydro-2H-[1,4]oxazin-3-yl)-4-fluoro-phenyl]-amide]
13 | 10 | 38 | NC1=N[C@@](c2cc(NC(=O)c3ncc(C(F)F)cc3N)ccc2F)(C(F)F)COC1 [Example 12, 3-Amino-5-difluoromethyl-pyridine-2-carboxylic acid [3-((R)-5-amino-3-difluoromethyl-3,6-dihydro-2H-[1,4]oxazin-3-yl)-4-fluorophenyl]-amide]
14 | 22 | 110 | [2H]C([2H])([2H])Oc1cnc(C(=O)Nc2ccc(F)c([C@]3(C(F)F)COCC(N)=N3)c2)c(C)c1 [Example 13, 5-Trideuteromethoxy-3-methyl-pyridine-2-carboxylic acid [3-((R)-5-amino-3-difluoromethyl-3,6-dihydro-2H-[1,4]oxazin-3-yl)-4-fluoro-phenyl]-amide]
15 | 9 | 20 | Cc1cc(C#N)cnc1C(=O)Nc1cc(F)c(F)c([C@]2(C(F)F)COCC(N)=N2)c1 [Example 14, 5-Cyano-3-methyl-pyridine-2-carboxylic acid [3-((R)-5-amino-3-difluoromethyl-3,6-dihydro-2H-[1,4]oxazin-3-yl)-4,5-difluoro-phenyl]-amide]
16 | 21 | 32 | [2H]C([2H])([2H])Oc1cnc(C(=O)Nc2cc(F)c(F)c([C@]3(C(F)F)COCC(N)=N3)c2)c(Cl)c1 [Example 15, 3-Chloro-5-trideuteromethoxy-pyridine-2-carboxylic acid [3-((R)-5-amino-3-difluoromethyl-3,6-dihydro-2H-[1,4]oxazin-3-yl)-4,5-difluoro-phenyl]-amide]
17 | 14 | 14 | [2H]c1nc(C(=O)Nc2cc(F)c(F)c([C@]3(C(F)F)COCC(N)=N3)c2)c(C([2H])([2H])[2H])c([2H])c1Cl [Example 16, 4,6-Dideutero-5-chloro-3-trideuteromethyl-pyridine-2-carboxylic acid [3-((R)-5-amino-3-difluoromethyl-3,6-dihydro-2H-[1,4]oxazin-3-yl)-4,5-difluoro-phenyl]-amide]
18 | 4 | 9 | C[C@@]1(c2cc(NC(=O)c3ncc(C#N)cc3Cl)ccc2F)CO[C@@](C)(C(F)(F)F)C(N)=N1 [Example 17, 3-Chloro-5-cyano-pyridine-2-carboxylic acid [3-((3R,6R)-5-amino-3,6-dimethyl-6-trifluoromethyl-3,6-dihydro-2H-[1,4]oxazin-3-yl)-4-fluoro-phenyl]-amide hydrochloride]
19 | 88 | – | Cc1cc(F)cnc1C(=O)Nc1ccc(F)c([C@]2(C)CO[C@@](C)(C(F)(F)F)C(N)=N2)c1 [Example 35, 5-Fluoro-3-methyl-pyridine-2-carboxylic acid [3-((3R,6R)-5-amino-3,6-dimethyl-6-trifluoro-methyl-3,6-dihydro-2H-[1,4]oxazin-3-yl)-4-fluoro-phenyl]-amide]
